Assay results taken from patent publication US20230174523A1, “BENZENESULFONAMIDE DERIVATIVES AS TRAP1 MODULATORS AND USES THEREOF” (Amathus Therapeutics, Inc., priority 2020, published 2023).

Molecular target: T1, TRAP1 enzyme (Homo sapiens, UniProt Q12931)
T1 sequence (Q12931 60-704): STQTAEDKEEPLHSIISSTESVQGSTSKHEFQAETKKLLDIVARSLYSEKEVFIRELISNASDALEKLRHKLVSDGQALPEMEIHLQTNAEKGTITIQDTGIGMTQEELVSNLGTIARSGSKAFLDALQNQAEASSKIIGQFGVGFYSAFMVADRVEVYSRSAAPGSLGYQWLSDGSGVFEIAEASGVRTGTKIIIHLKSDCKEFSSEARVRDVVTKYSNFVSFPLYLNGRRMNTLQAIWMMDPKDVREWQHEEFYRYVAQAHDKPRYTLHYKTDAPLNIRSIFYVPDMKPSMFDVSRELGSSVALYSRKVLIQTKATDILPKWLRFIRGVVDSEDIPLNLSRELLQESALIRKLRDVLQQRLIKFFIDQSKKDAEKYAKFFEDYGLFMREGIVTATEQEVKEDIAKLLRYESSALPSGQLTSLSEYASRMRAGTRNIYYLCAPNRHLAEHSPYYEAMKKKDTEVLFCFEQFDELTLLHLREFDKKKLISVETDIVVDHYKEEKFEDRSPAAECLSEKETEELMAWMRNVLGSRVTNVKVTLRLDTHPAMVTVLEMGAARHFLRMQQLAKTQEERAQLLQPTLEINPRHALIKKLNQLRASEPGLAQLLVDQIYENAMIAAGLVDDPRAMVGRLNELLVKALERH
Experiment: ADP Glo assay of TRAP1 ATPase activity
Assay type: biochemical
Conditions: for EC50: TRAP1 ATPase activation, 150 nM Trap1, 20 μM ATP, geometric mean, read-out: ADP GLO DRC: GeoMean EC50; for Emax: read-out: ADP GLO DRC: Mean Emax
Protocol: Potency of test compounds to modulate the ATPase activity of TRAP1 enzyme was evaluated using ADP Glo assay. The assay is based on quantification of the ADP generated from ATP in the ATPase reaction. The assay is performed in two steps: first, after the ATPase reaction, an equal volume of ADP-Glo™ Reagent is added to terminate the ATPase reaction and deplete the remaining ATP. Second, the Kinase Detection Reagent is added to simultaneously convert ADP to ATP and allow the newly synthesized ATP to be measured using a luciferase/luciferin reaction.
All the assays were carried out in a 384-well Proxiplate. The buffer used was 25 mM Pipes pH-7.5, 40 mM KCl, 0.05 mM MgCl2, 0.025% BSA, 0.316 mM EGTA, 0.003% Empigen, 0.01% Igepal. 150 nM Trap1 enzyme was incubated with various concentrations of the test compound (0.79 μM-100 μM) at 37° C. for 30 mins (except in blank wells). 20 μM ATP was added to each well to start the reaction. The plate was spun for 1 min at 1200 rpm and then incubated at 37° C. for 60 mins. 5 μl of ADP Glo reagent was added to all the wells and spun the plate for 1 min at 1200 rpm and kept it on a shaker at ambient temperature for 60 mins. 10 μl of kinase detection mix was added to all the wells and the plate was read for Luminescence at 495 nm. The amount of ADP released was estimated from ATP/ADP standard curve generated at the same experimental conditions. Emax (Maximal percent activation) and EC50 (concentration for half maximal activation) were estimated by fitting the dose response data to a sigmoidal curve fitting equation using Graphpad Prism software V. 8.

Row | SMILES | EC50 [µM] | Emax [%]
1 | COc1ccc(NC(=O)c2cccc(-c3ccnn3C)c2)cc1S(=O)(=O)Nc1c(C)cccc1C [Compound 1242] | < 10 | > 300
2 | COc1ccc(NC(=O)c2ncccc2C(=O)c2ccccc2)cc1S(=O)(=O)Nc1c(C)cccc1C [Compound 1275] | 20 to 100 | 123 to 159
3 | COc1ccc(NC(=O)c2cc3ccncc3s2)cc1S(=O)(=O)Nc1c(C)cccc1C [Compound 1043] | < 10 | 200 to 300
4 | COc1ccc(NC(=O)c2c(C(F)(F)F)coc2C)cc1S(=O)(=O)Nc1c(C)cccc1C [Compound 1111] | 10 to 20 | 160 to 199
5 | COc1ccc(NC(=O)c2coc(-c3ccccc3)n2)cc1S(=O)(=O)Nc1c(C)cccc1C [Compound 1301] | < 10 | 160 to 199
6 | COc1ccc(NC(=O)c2cccc3ccn(C)c23)cc1S(=O)(=O)Nc1c(C)cccc1C [Compound 1060] | < 10 | 200 to 300
7 | Cn1ncc(I)c1C(=O)Nc1ccc(F)c(S(=O)(=O)Nc2ccc(Cl)cc2)c1 [Compound 689] | 20 to 100 | 160 to 199
8 | COc1ccc(NC(=O)c2ccc(C)nc2OC)cc1S(=O)(=O)Nc1c(C)cccc1C [Compound 1021] | < 10 | 200 to 300
9 | CCc1ccc(NC(=O)c2cnn(-c3ccc(Cl)cc3)c2C)cc1S(=O)(=O)Nc1ccc(Cl)cc1 [Compound 1335] | 20 to 100 | 123 to 159
10 | COc1ccc(NC(=O)c2cnc(-c3ccccc3)s2)cc1S(=O)(=O)Nc1c(C)cccc1C [Compound 467] | < 10 | 160 to 199
11 | COc1ccc(NC(=O)c2ncc(-c3ccccc3)o2)cc1S(=O)(=O)Nc1sc(C)c(C)c1C#N [Compound 1672] | 10 to 20 | 160 to 199
12 | COc1ccc(NC(=O)c2cn(C(C)(C)C)nn2)cc1S(=O)(=O)Nc1c(C)cccc1C [Compound 1050] | 20 to 100 | 160 to 199
13 | O=C(Nc1ccc(F)c(S(=O)(=O)Nc2ccc(Cl)cc2)c1)c1ccccc1C(=O)c1ccccc1 [Compound 681] | < 10 | 160 to 199
14 | Cc1cc(C)n(Cc2cccc(C(=O)Nc3ccc(F)c(S(=O)(=O)Nc4ccc(Cl)cc4)c3)c2)n1 [Compound 807] | < 10 | 160 to 199
15 | COc1ccc(NC(=O)c2cccc(-c3cnco3)c2)cc1S(=O)(=O)Nc1c(C)cccc1C [Compound 1218] | 10 to 20 | 160 to 199
16 | COc1ccc(NC(=O)c2cnc(-c3ccccc3)[nH]2)cc1S(=O)(=O)Nc1c(C)cc(Cl)cc1C [Compound 443] | < 10 | 160 to 199
17 | COc1ccc(NC(=O)c2cc(N3CCCC3)ccn2)cc1S(=O)(=O)Nc1c(C)cccc1C [Compound 1077] | < 10 | 160 to 199
18 | COc1ccc(NC(=O)c2cnc3ccccc3c2)cc1S(=O)(=O)Nc1c(C)cccc1C [Compound 1330] | < 10 | 200 to 300
19 | COc1ccc(NC(=O)c2nc(-c3ccccc3)oc2C)cc1S(=O)(=O)Nc1c(C)cccc1C [Compound 1139] | < 10 | 123 to 159
20 | COc1ccc(NC(=O)c2ccc3c(c2)ncn3C)cc1S(=O)(=O)Nc1c(C)cccc1C [Compound 1228] | 20 to 100 | 123 to 159
21 | C=C(C)c1cc(OC)c(S(=O)(=O)Nc2ccc(C(F)(F)F)cc2)cc1NC(=O)c1ncc(-c2ccccc2)o1 [Compound 1189] | 20 to 100 | > 300
22 | Cc1cc(C(=O)Nc2ccc(F)c(S(=O)(=O)Nc3ccc(Cl)cc3)c2)n(Cc2ccc(F)cc2)n1 [Compound 776] | 10 to 20 | 123 to 159
23 | O=C(Nc1ccc(F)c(S(=O)(=O)Nc2ccc(Cl)cc2)c1)c1csc(N2CCOCC2)n1 [Compound 745] | 20 to 100 | 123 to 159
24 | CCS(=O)(=O)c1ccc(OC)c(C(=O)Nc2ccc(OC)c(S(=O)(=O)Nc3c(C)cccc3C)c2)c1 [Compound 1254] | 20 to 100 | 160 to 199
25 | COc1ccc(NC(=O)c2ccc3ncoc3c2)cc1S(=O)(=O)Nc1c(C)cccc1C [Compound 1236] | 20 to 100 | 123 to 159

Row | SMILES | EC50 [µM] | Emax [%]
26 | COc1ccc(NC(=O)c2cccc(-c3ccccn3)c2)cc1S(=O)(=O)Nc1c(C)cccc1C [Compound 1271] | < 10 | 160 to 199
27 | COc1ccc(NC(=O)c2cnc(-c3ccccc3)[nH]2)cc1S(=O)(=O)Nc1c(C)cccc1C [Compound 408] | < 10 | 200 to 300
28 | COc1ccc(NC(=O)c2cccc(C#N)c2Cl)cc1S(=O)(=O)Nc1c(C)cccc1C [Compound 1100] | 10 to 20 | 200 to 300
29 | COc1ccc(NC(=O)c2cnn(Cc3ccccc3)c2)cc1S(=O)(=O)Nc1c(C)cccc1C [Compound 1068] | < 10 | 200 to 300
30 | COc1ccc(NC(=O)c2cnc(-c3ccccc3)[nH]2)cc1S(=O)(=O)N(CCCCCCN)c1ccc(Br)cc1 [Compound 454, N-(3-(N-(6-aminohexyl)-N-(4-bromophenyl)sulfamoyl)-4-methoxyphenyl)-2-phenyl-1H-imidazole-5-carboxamide] | < 10 | 160 to 199
31 | COc1ccc(NC(=O)c2cccc(OC3CCOCC3)n2)cc1S(=O)(=O)Nc1c(C)cccc1C [Compound 1154] | 20 to 100 | 200 to 300
32 | COc1ccc(NC(=O)c2ncc(-c3ccccc3)o2)cc1S(=O)(=O)Nc1cccc(C(F)(F)F)n1 [Compound 1805] | 10 to 20 | 200 to 300
33 | COc1ccc(NC(=O)c2cccc(-n3cncn3)c2)cc1S(=O)(=O)Nc1c(C)cccc1C [Compound 1126] | 10 to 20 | 160 to 199
34 | COc1ccc(NC(=O)c2cc(C)n(C(F)F)n2)cc1S(=O)(=O)Nc1c(C)cccc1C [Compound 1149] | 10 to 20 | 123 to 159
35 | COc1ccc(NC(=O)c2csc(-c3ccccc3)n2)cc1S(=O)(=O)Nc1c(C)cccc1C [Compound 1116] | < 10 | 160 to 199
36 | COc1ccc(NC(=O)c2cn(C)c3ncccc23)cc1S(=O)(=O)Nc1c(C)cccc1C [Compound 1108] | 10 to 20 | > 300
37 | O=C(Nc1ccc(F)c(S(=O)(=O)Nc2ccc(Cl)cc2)c1)c1cnccc1C(F)(F)F [Compound 784] | 20 to 100 | 123 to 159
38 | COc1ccc(NC(=O)c2ncn(-c3ccccc3)n2)cc1S(=O)(=O)Nc1c(C)cccc1C [Compound 1270] | 10 to 20 | 200 to 300
39 | CCc1ncsc1C(=O)Nc1ccc(OC)c(S(=O)(=O)Nc2c(C)cccc2C)c1 [Compound 1137] | 20 to 100 | 160 to 199
40 | COc1ccc(NC(=O)c2ccc(-n3cccn3)cc2Cl)cc1S(=O)(=O)Nc1c(C)cccc1C [Compound 1019] | < 10 | 160 to 199
41 | COc1ccc(NC(=O)c2ncn(-c3cccc(F)c3)n2)cc1S(=O)(=O)Nc1c(C)cccc1C [Compound 1011] | 20 to 100 | 200 to 300
42 | COCCn1ccc(C(=O)Nc2ccc(OC)c(S(=O)(=O)Nc3c(C)cccc3C)c2)n1 [Compound 1066] | 20 to 100 | 160 to 199
43 | COc1ccc(NC(=O)c2cccc(-c3csc(C)n3)c2)cc1S(=O)(=O)Nc1c(C)cccc1C [Compound 1290] | < 10 | 160 to 199
44 | COc1ccc(NC(=O)c2cccc(Cc3ccc(F)cc3)c2)cc1S(=O)(=O)Nc1c(C)cccc1C [Compound 1036] | < 10 | 123 to 159
45 | COc1ccc(NC(=O)c2ccoc2C(F)(F)F)cc1S(=O)(=O)Nc1c(C)cccc1C [Compound 1122] | 20 to 100 | 160 to 199
46 | COc1ccc(NC(=O)c2ccnn2C(C)C)cc1S(=O)(=O)Nc1c(C)cccc1C [Compound 1104] | 10 to 20 | 200 to 300
47 | COc1ccc(NC(=O)c2cnc(C3CC3)o2)cc1S(=O)(=O)Nc1c(C)cccc1C [Compound 1175] | 20 to 100 | 160 to 199
48 | COc1ccccc1-c1nc(C(=O)Nc2ccc(OC)c(S(=O)(=O)Nc3ccc(Br)cc3)c2)c[nH]1 [Compound 1181] | < 10 | 160 to 199
49 | O=C(Nc1cccc(S(=O)(=O)Nc2ccc(Cl)cc2)c1)c1ncc(-c2ccccc2)o1 [Compound 438] | 10 to 20 | 123 to 159
